How the values were obtained:
Tuj1 = Tuj1 expression in 3XTg-AD mice (western blotting, immunostaining); assay type: in vivo; details: hippocampus and whole brain; s.c. three times a week for two months; vs control and Donepezil, same amount
Method: (§1) To test the efficacy of PEP1 on AD, AD transgenic mice (3XTg-AD) were purchased from Jackson Laboratory. Genetic characteristics of the transgenic mice are as follows: B6; 129-Psen1tm1Mpm Tg(APPSwe, tauP301L)1Lfa/Mmjax. […] One week after mice were confirmed as pregnant, new mice were delivered and weaned for 3 weeks. Two weeks later, mature mice were obtained.
(§2) During the preliminary breeding and the entire period of the experiment, a temperature was maintained at 23±2° C. and a relative humidity was maintained at 60±10%, and then the mice were raised under a 12-hour dark/light cycle. Experimental animals were divided into five groups, and each group included 10 animals. The divided experimental groups are as follows. […]
(§3) The PEP1, physiological saline, donepezil and scramble peptide were subcutaneously injected at each concentration three times a week for two months from the age of 12 months, and then two months after the injection, cognitive/memory behavior tests (passive avoidance test and Y maze test) were performed to examine a degree of improvement in cognitive function and memory function. After the brain was extracted to separate the hippocampus, the amounts of amyloid beta in the hippocampus and the whole brain, and the amounts of an amyloid beta oligomer and NFT generated by tau hyperphosphorylation were determined by western blotting and immunostaining. […]

NSCs = experiment: ROS production in NSCs (DCFH-DA staining); assay type: cell-based, rat; details: 20 μM Aβ25-35 + PEP1, 48 hours, DCF fluorescence
Method: NSCs were treated with 20 μM Aβ25-30 for 48 hours and stained with DCFH-DA for 15 minutes to measure ROS. NSCs were treated with a varying concentration of PEP1 and 20 μM Aβ25-30 for 48 hours. After culturing, the cells were stained with 10 μM DCFH-DA at 37° C. for 15 minutes and washed with PBS three times. DCFH-DA freely passed through the cell membrane, and then was degraded into DCF by an esterase present in the cells. Therefore, a DCF fluorescent intensity refers to an intracellular hydrogen peroxide (ROS) level. DCF accumulation was evaluated using a reader according to an absorbance at 490 nm and a reference absorbance at 690 nm. Flow cytometry was observed and analyzed using an Accuri C6 flow cytometer.

[1] = tested on: AD transgenic mice (3XTg-AD); experiment: Y-maze test; assay type: in vivo
Method: as §1, §2, §3

With “EARPALLTSRLRFIPK (homo sapiens) [PEP1, hTERT-derived peptide consisting of 16 amino acids, telomerase location [611-626]]” the Tuj1 (Tuj1) was “increased”, the “amount of ROS induced by Aβ25-35” value (NSCs) was “significantly reduces” and the “behavioral judgment (Y-maze test)” value ([1]; 3XTg-AD mice, treated from age 12 months, vs control and Donepezil) was “excellent behavioral judgment”. For the same sequence, the “ability to select a new path (spontaneous alteration (%)), Y-maze test” value ([1]; severe AD models, 20-month-old or older 3XTg-AD mice, PEP1 1 mg/kg s.c., vs physiological saline) was “increased”.

From patent US20180318383A1, “PEPTIDE HAVING NEURONAL LOSS PREVENTION AND REGENERATION EFFECTS, AND COMPOSITION CONTAINING SAME” (GEMVAX & KAEL CO., LTD., priority 2015, published 2018)
